Measurements from BigSolDB 2.1.

N#Cc1cccc([N+](=O)[O-])c1C#N
solubility (mole fraction)
Settings | 278.15 K | 283.15 K | 288.15 K | 293.15 K | 298.15 K | 303.15 K | 308.15 K | 313.15 K | 318.15 K | 323.15 K
in NMP | 0.0839 | 0.0936 | 0.104 | 0.115 | 0.128 | 0.141 | 0.155 | 0.17 | 0.186 | 0.203
in acetone | 0.0204 | 0.0242 | 0.0286 | 0.0338 | 0.0399 | 0.0472 | 0.0558 | 0.0661 | 0.0783 | 0.0929
in ethanol | 0.000924 | 0.00111 | 0.00134 | 0.0016 | 0.00194 | 0.00232 | 0.00273 | 0.00325 | 0.00382 | 0.00448
in ethyl acetate | 0.0178 | 0.0208 | 0.0242 | 0.0281 | 0.0324 | 0.0372 | 0.0426 | 0.0487 | 0.0555 | 0.063
in ethylene glycol | 0.0131 | 0.0158 | 0.019 | 0.0226 | 0.0268 | 0.0317 | 0.0373 | 0.0438 | 0.0512 | 0.0596
in isobutanol | 0.000381 | 0.000424 | 0.000477 | 0.000552 | 0.000643 | 0.000765 | 0.000921 | 0.00111 | 0.00135 | 0.00169
in isopropanol | 0.000561 | 0.000681 | 0.000837 | 0.00103 | 0.00125 | 0.00151 | 0.00179 | 0.00216 | 0.00257 | 0.00305
in methanol | 0.00203 | 0.0024 | 0.00283 | 0.00332 | 0.00388 | 0.00452 | 0.00523 | 0.00597 | 0.00695 | 0.00796
in n-butanol | 0.000411 | 0.000478 | 0.000569 | 0.000686 | 0.000836 | 0.001 | 0.0012 | 0.00143 | 0.00171 | 0.00207
in n-propanol | 0.000735 | 0.000899 | 0.00109 | 0.00132 | 0.00159 | 0.00189 | 0.00226 | 0.00268 | 0.00317 | 0.00373
in toluene | 0.000946 | 0.00116 | 0.00142 | 0.00173 | 0.0021 | 0.00254 | 0.00305 | 0.00367 | 0.00437 | 0.00521
in water | 5.32e-05 | 6.38e-05 | 7.98e-05 | 9.78e-05 | 0.00012 | 0.000146 | 0.000176 | 0.00021 | 0.00025 | 0.000298
